The structures appear in SMILES notation.

The test system of one assay is HIV-IIIb. Description: Test A: Antiviral Assays in MT4 Cells. It counts as cell-based. The following applies: Human immunodeficiency virus 1, IIIB, MT4, 120 h, Table I; MT-4 cells infected with HIV-IIIb, 5 days incubation, CellTiter-Glo readout. The method, then: The antiviral properties of a compound disclosed herein may be determined using Test A described below.
Test A: Antiviral Assays in MT4 Cells
For the antiviral assay utilizing MT-4 cells, 0.4 μL of […] test concentration of 3-fold serially diluted compound in DMSO was added to 40 μL of cell growth medium (RPMI 1640, 10% FBS, 1% penicillin/Streptomycin, 1% L-Glutamine, 1% HEPES) in each well of 384-well assay plates (10 concentrations) in quadruplicate.
1 mL aliquots of 2×10e6 MT-4 cells are pre-infected for 1 and 3 hrs respectively, @ 37° C. with 25 μL (MT4) or of either cell growth medium (mock-infected) or a fresh 1:250 dilution of an HIV-IIIb concentrated ABI stock (0.004 m.o.i. for MT4 cells). Infected and uninfected cells are diluted in cell growth medium and 35 μL of 2000 (for MT4) cells is added to each well of the assay plates.
Assay plates were then incubated in a 37° C. incubator. After 5 days of incubation, 25 μl of 2× concentrated CellTiter-Glo™ Reagent (catalog # G7573, Promega Biosciences, Inc., Madison, Wis.) was added to each well of the assay plate. Cell lysis was carried out by incubating at room temperature for 2-3 min and then chemiluminescence was read using the Envision reader (PerkinElmer).
A general note: Cellular ATP, detected with luciferase, serves as a proxy for viable cell number.
By EC50 is commonly meant the concentration giving half of the maximal effect. A high value points to a need for much substance. Regarding `CC(C)(C)O[C@H](C(=O)O)c1c(-c2ccc3c4c(ccnc24)CCO3)c2ccccc2c2ccccc12` (atropisomer, axis not shown) [Example 24, (S)-2-tert-Butoxy-2-((R)-10-(2,3-dihydropyrano[4,3,2-de]quinolin-7-yl)phenanthren-9-yl)acetic acid], the half-maximal effective concentration (EC50) was determined as 109 nM. This counts as sub-micromolar. On the same count and under the same terms, for `Cc1cc2ccc(C#CC(C)(O)c3cccnc3)cc2c(-c2ccc(Cl)cc2)c1[C@H](OC(C)(C)C)C(=O)O` (stereo partly drawn) [Example 11, (2S)-2-tert-Butoxy-2-(1-(4-chlorophenyl)-7-(3-hydroxy-3-(pyridin-3-yl)but-1-ynyl)-3-methylnaphthalen-2-yl)acetic acid] the value was 24 nM; for `CCCCC(C)(C)O[C@H](C(=O)O)c1c(C)cc2ccccc2c1-c1ccc2c3c(ccnc13)CCO2` (atropisomer, axis not shown) [Example 30, (S)-2-((S)-1-(2,3-Dihydropyrano[4,3,2-de]quinolin-7-yl)-3-methylnaphthalen-2-yl)-2-(2-methylhexan-2-yloxy)acetic acid], 84 nM. Same read-out and setting: under `Cc1ccc2cc(C)c([C@H](OC(C)(C)C)C(=O)O)c(-c3ccc4c5c(ccnc35)CCO4)c2c1` (atropisomer, axis not shown) [Example 15, (S)-2-tert-Butoxy-2-((R)-1-(2,3-dihydropyrano[4,3,2-de]quinolin-7-yl)-3,7-dimethylnaphthalen-2-yl)acetic acid] stands 34 nM.

Staying with this assay, now noted: Human immunodeficiency virus 1, IIIB, MT4, 120 h, Table II; MT-4 cells infected with HIV-IIIb, 5 days incubation, CellTiter-Glo readout.
`Cc1ccc2c(-c3ccc4c5c(ccnc35)CCO4)c(C(OC(C)(C)CF)C(=O)O)c(C)cc2c1` (stereo not shown) [Example 65] showed an EC50 of 12.1 nM. As for `Cc1ccc2c(-c3ccc4c5c(ccnc35)CCO4)c([C@H](OC(C)(C)CF)C(=O)O)c(C)cc2c1` (atropisomer, axis not shown) [Example 64], the half-maximal effective concentration (EC50) worked out at 8.72 nM. This EC50 and that of the compound before are within 1.5-fold of each other. For the compound `CCOc1ncc(-c2ccc3c(-c4ccc5c6c(ccnc46)CCO5)c([C@H](OC(C)(C)C)C(=O)O)c(C)cc3c2)c(OCC)n1` (atropisomer, axis not shown) [Example 50], the concentration giving a half-maximal response (EC50) is 45.1 nM. The compound `Cc1c([C@H](OC(C)(C)C)C(=O)O)c(-c2ccc3c4c(ccnc24)CCO3)c2ccccc2c1O` (atropisomer, axis not shown) [Example 83] registered an EC50 of 14.9 nM. This EC50 lies about 3-fold lower than the previous one.

Turning to `Cc1cc2c(C)c(-c3cnc(N4CCN(C)CC4)nc3)ccc2c(-c2ccc3c4c(ccnc24)CCO3)c1[C@H](OC(C)(C)C)C(=O)O` (atropisomer, axis not shown) [Example 71], a half-maximal effect (EC50) was put at 4.23 nM. The same measure, in the same setting: for `Cc1cc2ccc(-c3cccc(-c4ccc5c(cnn5C)c4)c3)cc2c(-c2ccc(Cl)cc2)c1[C@H](OC(C)(C)C)C(=O)O` [Example 88] the value was 3490 nM; for `CC(=O)Nc1c(C)c([C@H](OC(C)(C)C)C(=O)O)c(-c2ccc3c4c(ccnc24)CCO3)c2ccccc12` (atropisomer, axis not shown) [Example 89], 218 nM.

`Cc1cc2cc(-c3cnc(N)nc3)ccc2c(-c2ccc3c4c(ccnc24)CCO3)c1[C@H](OC(C)(C)C)C(=O)O` (atropisomer, axis not shown) [Example 55]: the EC50 came out at 7.53 nM. Still for that read-out and setting: for `Cc1cc2ccccc2c(-c2ccc3c4c(ccnc24)CCO3)c1[C@H](OC(C)(C)CF)C(=O)O` (atropisomer, axis not shown) [Example 102] the value was 18 nM.

In turn, `Cc1cc2ccccc2c(-c2ccc3c4c(ccnc24)CCO3)c1[C@@H](OC(C)(C)CF)C(=O)O` (atropisomer, axis not shown) [Example 101] showed an EC50 of 4740 nM. Same read-out and setting: under `Cc1c([C@H](OC(C)(C)C)C(=O)O)c(-c2ccc3c4c(ccnc24)CCO3)c2ccccc2c1N` (atropisomer, axis not shown) [Example 93] stands 7.92 nM. `Cc1cc2ccccc2c(-c2ccc3c4c(ccnc24)CCO3)c1[C@@H](OC(C)(CF)CF)C(=O)O` (atropisomer, axis not shown) [Example 104] gave an EC50 of 2950 nM.

With `CC(C)(C)O[C@H](C(=O)O)c1c(-c2ccc3c4c(ccnc24)CCO3)c2ccccc2c2[nH]ncc12` (atropisomer, axis not shown) [Example 90], the concentration giving a half-maximal response (EC50) stood at 366 nM. Compared with the last compound, the EC50 is about 8.1-fold lower. In the case of `Cc1cc2c(N)cccc2c(-c2ccc3c4c(ccnc24)CCO3)c1[C@H](OC(C)(C)C)C(=O)O` (atropisomer, axis not shown) [Example 91], the response was half-maximal at 11.7 nM (EC50). Against the preceding compound, the EC50 is about 31-fold lower. Still for that read-out and setting: for `Cc1cc2ccccc2c(-c2ccc3c4c(ccnc24)CCO3)c1C(OC(C)(CF)CF)C(=O)O` (stereo not shown) [Example 106] the value was 40.7 nM. Still for that read-out and setting: under `Cc1ccc2c(-c3ccc4c5c(ccnc35)CCO4)c([C@@H](OC(C)(C)CF)C(=O)O)c(C)cc2c1` (atropisomer, axis not shown) [Example 63] stands 1680 nM. In the case of `Cc1cc2ccccc2c(-c2ccc3c4c(ccnc24)CCO3)c1C(OC(C)(C)CF)C(=O)O` (stereo not shown) [Example 103], a half-maximal response (EC50) required 30.7 nM.

The same assay, now with this note: Table I; MT-4 cells infected with HIV-IIIb, 5 days incubation, CellTiter-Glo readout.
Compound `CCOCC(C)(C)O[C@H](C(=O)O)c1c(C)cc2ccccc2c1-c1ccc2c3c(ccnc13)CCO2` (atropisomer, axis not shown) [Example 27, (2S)-2-((R)-1-(2,3-Dihydropyrano[4,3,2-de]quinolin-7-yl)-3-methylnaphthalen-2-yl)-2-(1-ethoxy-2-methylpropan-2-yloxy)acetic acid] yielded an EC50 of 84 nM. In other words, the double-digit nanomolar range.

The assay is the same for the next values; noted with them: Table II; MT-4 cells infected with HIV-IIIb, 5 days incubation, CellTiter-Glo readout.
On to `Cc1cc2cc(-c3cnc(-c4cncnc4)nc3)ccc2c(-c2ccc3c4c(ccnc24)CCO3)c1[C@H](OC(C)(C)C)C(=O)O` (atropisomer, axis not shown) [Example 39], for which the half-maximal effective concentration (EC50) stood at 8680 nM. Same read-out and setting: for `Cc1cc2cc(-c3ccc(-c4cncnc4)cc3)ccc2c(-c2ccc3c4c(ccnc24)CCO3)c1[C@H](OC(C)(C)C)C(=O)O` (atropisomer, axis not shown) [Example 41] the value was 40.9 nM.

In the case of `CC(C)(C)O[C@H](C(=O)O)c1c2c(c3ccccc3c1-c1ccc3c4c(ccnc14)CCO3)CCC2` (atropisomer, axis not shown) [Example 34], the EC50 stood at 60 nM.

On to `Cc1cc2cc(-c3c(C)ncnc3C)ccc2c(-c2ccc3c4c(ccnc24)CCO3)c1[C@H](OC(C)(C)C)C(=O)O` (atropisomer, axis not shown) [Example 59], for which a half-maximal response (EC50) required 471 nM. Against the preceding compound, the EC50 is about 7.8-fold higher. `Cc1cc2cc(C#Cc3cncnc3)ccc2c(-c2ccc3c4c(ccnc24)CCO3)c1[C@H](OC(C)(C)C)C(=O)O` (atropisomer, axis not shown) [Example 42] had a concentration giving a half-maximal response (EC50) of 53200 nM. On the same count and under the same terms, under `Cc1cc2cc(-c3ccc4c(cnn4C)c3)ccc2c(-c2ccc3c4c(ccnc24)CCO3)c1[C@H](OC(C)(C)C)C(=O)O` (atropisomer, axis not shown) [Example 45] stands 354 nM; under `Cc1cc2cc(-c3cncnc3C)ccc2c(-c2ccc3c4c(ccnc24)CCO3)c1[C@H](OC(C)(C)C)C(=O)O` (atropisomer, axis not shown) [Example 56], 30.5 nM; under `Cc1cc2cc(-c3cnc(-c4cncnc4)nc3)ccc2c(-c2ccc3c4c(ccnc24)CCO3)c1[C@H](OC(C)(C)C)C(=O)O` (atropisomer, axis not shown) [Example 38], 45.2 nM. On the same count and under the same terms, under `Cc1cc2cc(-c3cncnc3N)ccc2c(-c2ccc3c4c(ccnc24)CCO3)c1[C@H](OC(C)(C)C)C(=O)O` (atropisomer, axis not shown) [Example 53] stands 74.2 nM.

Turning to `CC(C)(C)O[C@H](C(=O)O)c1c2c(c3ccccc3c1-c1ccc3c4c(ccnc14)CCO3)OCC2` (atropisomer, axis not shown) [Example 79], it took 9910 nM to reach a half-maximal effect (EC50). Compared with the last compound, the EC50 is about 130-fold higher. The same measure, in the same setting: under `Cc1cc2cc(-c3cnc(-c4ccccc4)nc3)ccc2c(-c2ccc3c4c(ccnc24)CCO3)c1[C@H](OC(C)(C)C)C(=O)O` (atropisomer, axis not shown) [Example 36] stands 100 nM; under `Cc1cc2cc(-c3cnc(-c4ccccc4)nc3)ccc2c(-c2ccc3c4c(ccnc24)CCO3)c1[C@H](OC(C)(C)C)C(=O)O` (atropisomer, axis not shown) [Example 37], 4450 nM.

The compound `Cc1cc2c(C)c(-c3cnc(N)nc3)ccc2c(-c2ccc3c4c(ccnc24)CCO3)c1[C@H](OC(C)(C)C)C(=O)O` (atropisomer, axis not shown) [Example 75] registered an EC50 of 6.95 nM. The same measure, in the same setting: under `Cc1cc2cccc(F)c2c(-c2ccc3c4c(ccnc24)CCO3)c1[C@H](OC(C)(C)C)C(=O)O` (atropisomer, axis not shown) [Example 69] stands 11.3 nM. Still for that read-out and setting: under `Cc1cc2c(C)c(-c3cnc(N)nc3)ccc2c(-c2ccc3c4c(ccnc24)CCO3)c1[C@H](OC(C)(C)C)C(=O)O` [Example 74] stands 37800 nM. The same measure, in the same setting: under `Cc1cc2ccccc2c(-c2ccc3c4c(ccnc24)CCO3)c1[C@H](OC(C)(C)CCF)C(=O)O` (atropisomer, axis not shown) [Example 97] stands 43 nM; under `Cc1cc2cc(-c3ccc(-c4cncnc4)cc3)ccc2c(-c2ccc3c4c(ccnc24)CCO3)c1[C@H](OC(C)(C)C)C(=O)O` (atropisomer, axis not shown) [Example 40], 542 nM; under `CC(C)(C)O[C@H](C(=O)O)c1c2c(c3ccccc3c1-c1ccc3c4c(ccnc14)CCO3)OCC2` (atropisomer, axis not shown) [Example 78], 45.8 nM.

(Values after patent publication US9284323B2, “Naphthalene acetic acid derivatives against HIV infection” (Gilead Sciences, Inc., priority 2012, dated 2016).)
